Data on five compounds can be found in US6043072A, “Nucleic acids encoding Taxus geranylgeranyl diphosphate synthase, and methods of use” (Washington State University Research Foundation, priority 1998, dated 2000).

Experiment [1] has as its target T. canadensis GGPP synthase (Taxus canadensis, UniProt Q9ZPM3). Nature of the experiment: Kinetic evaluation of recombinant GGPP synthase (standard prenyltransferase assay, double reciprocal plots). The class given is biochemical. Conditions: for relative velocities of the reaction with allylic co-substrates: co-substrate at 12.5 and 25 mM, IPP and Mg^2+ at saturation. As to the method: The reaction was quenched by the addition of 300 mil of methanol:conc. HCl (4:1, v/v), and the allylic diphosphate products were solvolyzed (50, 51) upon further incubation at 42° C. for 20 min. The resulting solvolysis products were extracted twice with 1 ml pentane, and were either analyzed by liquid scintillation counting (in toluene:ethanol (7:3, v/v) containing 0.4% Omnifluor (DuPont NEN); ^14 C counting efficiency=96.0%) or concentrated on ice under a gentle stream of Ar to […] for further analysis.

The test system of the next experiment is GGPP synthase mRNA. Nature of the experiment: RNA-blot analysis over the time course of methyl jasmonate induction. In kind it is cell-based, T. canadensis. Conditions: at 8 h; elevated through at least 48 h. As to the method: (§1) Total RNA was isolated from T. canadensis suspension cell cultures using the method set forth in Example 1. Equivalent amounts of RNA […] from cells that had been harvested 8, 12, 24, 48, and 168 h after methyl jasmonate induction, as well as RNA isolated from non-induced cells (0 h), were separated by electrophoresis on a formaldehyde-denaturing agarose gel, along with RNA size standards (Promega Corporation, Madison, Wis.). The separated RNA was blotted to nylon membrane by capillary action and then fixed by UV irradiation. Radiolabeled probes corresponding to the full length GGPP synthase coding region (nucleotide 308 to nucleotide 1489 of the nucleic acid sequence set forth in SEQ ID NO:1), and to an internal fragment (nucleotides 173 to 1875 inclusive) of the taxadiene synthase cDNA reported in Wildung, M. R. and Croteau, R. (1996) J. Biol. […] The blot was incubated sequentially with each probe for 16 h at 65° C., then washed twice with 2×SSC at room temperature, and then thrice with 0.5×SSC at 65° C. The blot was imaged using a Bio-Rad GS-525 Molecular Imager® System and Molecular Analyst version 2.1 software.

The test system of the next experiment is taxadiene synthase mRNA. The description is as above. In kind it is cell-based, T. canadensis. Conditions: at 8 h; elevated through at least 48 h. As to the method:
as §1

For the next experiment, the system named is GGPP synthase. The experiment in a line: Enzyme activity in cell culture extracts after methyl jasmonate induction. The class given is cell-based, T. canadensis. Conditions: crude extracts, 0-168 h after induction (FIG. 5). As to the method:
(§2) The same T. canadensis cell cultures used for RNA blot analysis were also used to determine the relative activities of GGPP synthase and taxadiene synthase over the course of methyl jasmonate induction of paclitaxel biosynthesis. […] Particulate material and cellular debris were removed from the homogenates by centrifugation, first at 3000 g, then at 31,000 g, for 20 min at 4° C. Protein concentration in the supernatant used as the enzyme source was estimated by the method of Bradford (Bradford, M. M. (1976) Anal. Biochem. 72:24814 254). GGPP synthase activity was determined by the standard prenyltransferase assay described in Example 4, except that 100 μl of crude extract (150 μg protein) isolated from T. canadensis cell cultures was used as the enzyme source and the reactions were incubated for 10 min. Taxadiene synthase activity was determined by measuring the Mg^2+ -dependent conversion of [1-^3 H1 ]geranylgeranyl diphosphate (15 μM) to the olefin product as described in Hezari, M., Lewis, N. G. and Croteau, R. (1995) Arch. Biochem. Biophys., 322:437-444; […]., Gibson, D. M. and Croteau, R. (1997) Arch. Biochem. Biophys., 337:185-190. In this assay, 500 μl of the crude extract (750 μg protein) was incubated at 3 1° C. for 1 h.

Another experiment has as its system taxadiene synthase. The description is as above. The class given is cell-based, T. canadensis. Conditions: crude extracts, 0-168 h after induction (FIG. 5). The protocol:
as §2

Experiment [2] deals with T. canadensis suspension cell cultures. The experiment in a line: Methyl jasmonate induction of suspension cell cultures: paclitaxel in medium and cell mass. The class given is cell-based. The protocol:
Suspension cell cultures were treated with methyl jasmonate 7 d after subculture and harvested at 8, 12, 24, 48 or 168 h after elicitation, or immediately before induction. During this 7 d induction period, the wet cell mass increased by about 10% and the paclitaxel concentration in the medium (where the majority of the taxoids accumulate) rose from 2.5 mg/l to 32 mg/I, with the greatest increase occurring after 48 h. The concentration of paclitaxel was measured by calibrated HPLC with UV detection as described in Hezari et al, Arch. Biochem. Biophys., 337:185-190 (1997).

The next experiment addresses T1, GGPP synthase proteins (Taxus canadensis, UniProt Q9ZPM3).
T1 construct: values reportedly equal those of recombinant truncated (mature) T. canadensis enzyme
The experiment in a line: Physical properties of GGPP synthase proteins isolated from various Taxus species (Table 1). In kind it is biochemical, T. canadensis; T. brevifolia; T. cuspidata and T. baccata.

Chain of T. canadensis GGPP synthase (Q9ZPM3 99-393): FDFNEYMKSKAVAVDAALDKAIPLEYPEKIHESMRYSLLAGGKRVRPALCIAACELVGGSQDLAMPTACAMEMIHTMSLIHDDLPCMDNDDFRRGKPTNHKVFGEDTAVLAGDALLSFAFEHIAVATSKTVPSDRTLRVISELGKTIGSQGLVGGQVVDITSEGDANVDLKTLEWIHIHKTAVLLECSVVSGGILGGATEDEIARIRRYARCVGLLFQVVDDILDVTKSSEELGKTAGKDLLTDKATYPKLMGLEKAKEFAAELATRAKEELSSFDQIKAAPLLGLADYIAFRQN
T1 sequence (Q9ZPM3 99-393): as above

`CC(C)=CCC/C(C)=C/CC/C(C)=C/CO[P@@](=O)(O)OP(=O)(O)O` (stereo in doubt) [FPP, farnesyl diphosphate]: the “relative velocities of the reaction with allylic co-substrates” value in experiment [1] is 66%.
For `CC(C)=CCC/C(C)=C/COP(=O)(O)OP(=O)(O)O` [GPP, geranyl diphosphate], in experiment [1], the “relative velocities of the reaction with allylic co-substrates” value is 100%.
As to `CC/C=C\CC1C(=O)CCC1CC(=O)OC` (centres unmarked) [methyl jasmonate], the “steady state mRNA level of GGPP synthase” value with GGPP synthase mRNA is “rapid increase”. In addition, the “steady state mRNA level of taxadiene synthase” value with taxadiene synthase mRNA is reported as “rapid increase”. Besides, the “GGPP synthase activity level” value with GGPP synthase is “rose steadily to 48 h”. Also, in the experiment with taxadiene synthase, the “taxadiene synthase activity level” value is given as “rose steadily to 48 h”. Besides, the “paclitaxel concentration in the medium” value in experiment [2] (after 7 d induction period, rose from 2.5 mg/l) came out at 32 mg/I. Moreover, the “increase of wet cell mass” value in experiment [2] (during 7 d induction period) is “about 10%”.
For `[Mg+2]` [Mg^2+], the Km (commonly the concentration of substrate that gives half-maximal velocity) at GGPP synthase proteins amounted to 35 ± 3 µM; in experiment [1] (double reciprocal plotting, remaining reactants at saturation), 35 µM.
For `[Mn+2]` [Mn^2+], the “support of catalysis as divalent metal ion cofactor” value in experiment [1] is “did not support catalysis”.
